One data set concerns the target Nonstructural protein 1 (Influenza A virus, UniProt Q194T2). Type of data set: functional, Influenza A virus (A/California/07/2009(H1N1)).
The nature of data set [1]: cells.
Data set [2] has as its target Voltage-dependent T-type calcium channel subunit alpha-1H (Homo sapiens, UniProt O95180). Type of data set: functional.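 Note: channel activity triggered by adding a high calcium stimulation buffer.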
Data set [3] in a line: HEp-2 cell cytotoxicity, dose response, cytotoxicity control for RSV inhibitor project, HTS (AID 2410). Type of data set: functional. The conditions noted are these: human respiratory syncytial virus.
For a further data set, the target named is T1, Hexokinase HKDC1 (Homo sapiens, UniProt Q2TB90).
T1 sequence (Q2TB90 whole entry): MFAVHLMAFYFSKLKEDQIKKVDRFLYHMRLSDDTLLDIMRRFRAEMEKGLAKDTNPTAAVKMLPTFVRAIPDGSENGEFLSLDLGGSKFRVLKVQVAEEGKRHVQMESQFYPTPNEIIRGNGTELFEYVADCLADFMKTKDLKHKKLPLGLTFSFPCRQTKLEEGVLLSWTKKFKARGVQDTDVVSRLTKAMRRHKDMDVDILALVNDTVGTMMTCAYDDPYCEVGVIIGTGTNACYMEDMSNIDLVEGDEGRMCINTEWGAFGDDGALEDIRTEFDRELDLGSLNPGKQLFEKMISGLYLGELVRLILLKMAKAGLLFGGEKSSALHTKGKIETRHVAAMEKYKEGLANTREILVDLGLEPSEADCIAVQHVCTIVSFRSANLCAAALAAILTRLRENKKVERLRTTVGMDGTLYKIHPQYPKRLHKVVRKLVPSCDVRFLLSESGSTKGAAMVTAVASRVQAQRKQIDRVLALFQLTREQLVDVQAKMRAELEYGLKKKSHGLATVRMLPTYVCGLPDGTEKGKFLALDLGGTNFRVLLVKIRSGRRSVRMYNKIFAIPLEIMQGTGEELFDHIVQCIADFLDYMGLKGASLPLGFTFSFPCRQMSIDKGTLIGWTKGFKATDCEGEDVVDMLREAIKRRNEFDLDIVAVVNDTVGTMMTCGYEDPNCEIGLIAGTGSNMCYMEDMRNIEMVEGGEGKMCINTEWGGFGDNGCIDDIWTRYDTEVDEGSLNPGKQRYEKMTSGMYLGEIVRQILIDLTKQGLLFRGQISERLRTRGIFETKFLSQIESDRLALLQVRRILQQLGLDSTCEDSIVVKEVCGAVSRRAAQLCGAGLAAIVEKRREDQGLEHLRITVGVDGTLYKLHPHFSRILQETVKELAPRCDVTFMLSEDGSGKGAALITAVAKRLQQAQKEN
As to the kind of experiment: HKDC1 hexokinase inhibitors, dose response, biochemical, W721R variant (AID 504729). In kind it is functional.

Data set [4] addresses FAD-linked sulfhydryl oxidase ALR (Homo sapiens, UniProt P55789). Put plainly: inhibitors of human ALR sulfhydryl oxidase, dose response, biochemical, H2O2 detection, luminescence, cherry-pick (AID 493248).
Data set [5] can be described thus: THP-1 cell cytotoxicity, dose response, cytotoxicity control for non-replicating M. tuberculosis project (AID 489025). Type of data set: functional.
Data set [6] in a line: cells. Type of data set: functional.
For a further data set, the target named is T2, Streptokinase A (Streptococcus pyogenes serotype M1, UniProt P10520).
T2 sequence (P10520 whole entry): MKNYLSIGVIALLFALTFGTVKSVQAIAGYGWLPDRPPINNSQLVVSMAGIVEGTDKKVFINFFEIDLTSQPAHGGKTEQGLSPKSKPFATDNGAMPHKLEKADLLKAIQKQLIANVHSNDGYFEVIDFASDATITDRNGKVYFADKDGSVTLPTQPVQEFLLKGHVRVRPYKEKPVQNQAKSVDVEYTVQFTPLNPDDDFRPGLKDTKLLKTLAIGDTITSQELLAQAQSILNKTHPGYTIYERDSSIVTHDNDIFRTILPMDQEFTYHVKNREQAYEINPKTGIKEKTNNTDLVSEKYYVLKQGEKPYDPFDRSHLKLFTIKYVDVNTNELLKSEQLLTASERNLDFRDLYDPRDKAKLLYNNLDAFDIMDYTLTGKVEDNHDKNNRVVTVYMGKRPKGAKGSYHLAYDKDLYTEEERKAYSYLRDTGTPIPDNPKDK
As to the kind of experiment: S. pyogenes streptokinase expression inhibitors, potency, dose response, plasminogen activation absorbance, OD405 (AID 1914).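 Note: secreted streptokinase activity via plasminogen activation per viability signal from cell pellet.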 Type of data set: functional, Streptococcus pyogenes M1 GAS.

A further data set deals with Streptococcus. As to the kind of experiment: Group A Streptococcus viability loss, dose response, counter-screen for streptokinase expression inhibitor project, luminescence, BacTiterGlo (AID 1915).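 Note: potency for reduction of bacterial viability or growth.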 In kind it is functional, organism-based. A general note: A counterscreen serves to expose hits that act by an unwanted route or on another target.
The subject of data set [7] is Streptococcus sp. 'group A'. Put plainly: growth inhibition of control SK(-) GAS strain, dose response, counter-screen for streptokinase expression inhibitor project, luminescence, kanamycin, BacTiterGlo, confirmation (AID 1900). In kind it is functional, organism-based.
The target in data set [8] is Glyceraldehyde-3-phosphate dehydrogenase (Homo sapiens, UniProt P04406).
The target of data set [9] is T3, Alkaline phosphatase, tissue-nonspecific isozyme (Homo sapiens, UniProt P05186).
T3 sequence (P05186 whole entry): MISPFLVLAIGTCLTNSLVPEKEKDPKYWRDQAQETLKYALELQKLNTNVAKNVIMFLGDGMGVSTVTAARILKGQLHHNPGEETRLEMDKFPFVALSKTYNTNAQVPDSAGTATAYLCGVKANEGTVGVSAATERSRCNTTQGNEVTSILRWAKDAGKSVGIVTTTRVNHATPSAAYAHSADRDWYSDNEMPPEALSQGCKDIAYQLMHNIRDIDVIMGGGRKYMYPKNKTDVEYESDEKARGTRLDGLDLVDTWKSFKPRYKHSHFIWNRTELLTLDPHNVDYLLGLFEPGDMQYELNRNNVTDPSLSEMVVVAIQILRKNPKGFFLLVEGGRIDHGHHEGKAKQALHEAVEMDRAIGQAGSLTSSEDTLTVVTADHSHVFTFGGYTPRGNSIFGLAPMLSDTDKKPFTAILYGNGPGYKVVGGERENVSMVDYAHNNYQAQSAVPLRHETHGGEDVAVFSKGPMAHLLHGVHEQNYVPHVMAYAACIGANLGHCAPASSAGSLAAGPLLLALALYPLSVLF
Put plainly: human TNAP enzyme inhibitors, SAR follow-up, biochemical, luminescent, dose response (AID 1056).

The target of the next data set is T4, Coagulation factor XII (Homo sapiens, UniProt P00748).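 Note: activated factor XIIa alpha cleaving a fluorogenic AMC peptide substrate; inhibitor potency from loss of enzyme activity.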
T4 sequence (P00748 whole entry): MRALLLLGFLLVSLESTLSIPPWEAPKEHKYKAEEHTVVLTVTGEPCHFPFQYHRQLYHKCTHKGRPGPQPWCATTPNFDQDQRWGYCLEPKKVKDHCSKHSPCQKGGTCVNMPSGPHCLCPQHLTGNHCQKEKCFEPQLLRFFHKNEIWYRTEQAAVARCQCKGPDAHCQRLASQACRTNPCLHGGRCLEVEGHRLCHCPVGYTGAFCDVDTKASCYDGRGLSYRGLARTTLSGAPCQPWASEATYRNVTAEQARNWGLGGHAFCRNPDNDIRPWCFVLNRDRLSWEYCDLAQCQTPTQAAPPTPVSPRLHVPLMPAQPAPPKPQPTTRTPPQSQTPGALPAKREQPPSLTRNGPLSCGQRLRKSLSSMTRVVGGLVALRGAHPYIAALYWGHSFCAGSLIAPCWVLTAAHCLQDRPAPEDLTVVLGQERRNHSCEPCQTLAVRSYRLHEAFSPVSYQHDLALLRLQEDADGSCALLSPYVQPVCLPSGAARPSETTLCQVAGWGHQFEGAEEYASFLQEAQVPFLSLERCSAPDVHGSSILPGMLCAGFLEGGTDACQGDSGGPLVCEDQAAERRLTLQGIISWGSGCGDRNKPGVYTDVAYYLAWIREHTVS
In kind it is functional.

The target in data set [10] is T5, Calpain-2 catalytic subunit (Sus scrofa, UniProt P43367).
T5 sequence (P43367 whole entry): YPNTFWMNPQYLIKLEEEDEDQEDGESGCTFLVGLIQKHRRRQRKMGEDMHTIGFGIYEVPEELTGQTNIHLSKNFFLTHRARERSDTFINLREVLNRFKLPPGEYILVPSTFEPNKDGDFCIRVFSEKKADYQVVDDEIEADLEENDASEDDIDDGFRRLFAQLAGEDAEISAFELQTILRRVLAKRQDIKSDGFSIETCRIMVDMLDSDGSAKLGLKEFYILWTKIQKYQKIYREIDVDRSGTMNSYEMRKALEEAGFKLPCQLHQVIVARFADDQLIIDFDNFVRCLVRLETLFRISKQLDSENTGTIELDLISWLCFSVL
Put plainly: pig calpain II inhibitor potency, dose response, biochemical, fluorogenic peptide substrate (AID 1420). In kind it is functional.

Another data set concerns the target Cytochrome P450 2D6 (Homo sapiens, UniProt P10635).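 Note: CYP2D6 member of a cytochrome P450 panel assay.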
In a further data set the target is T6, Bcl-2-related protein A1 (Mus musculus, UniProt Q07440).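 Note: confirmatory dose–response counterscreen on Bfl-1, used to check hits from a UBC13 polyubiquitin inhibitor campaign.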
T6 sequence (Q07440 whole entry): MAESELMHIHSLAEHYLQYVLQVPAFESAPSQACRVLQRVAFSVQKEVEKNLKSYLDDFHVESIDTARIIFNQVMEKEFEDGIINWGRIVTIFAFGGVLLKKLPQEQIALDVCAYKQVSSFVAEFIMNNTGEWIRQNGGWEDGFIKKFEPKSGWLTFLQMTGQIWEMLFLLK
In kind it is functional.

The target of data set [11] is T7, Ubiquitin-conjugating enzyme E2 N (Homo sapiens, UniProt P61088).
T7 sequence (P61088 whole entry): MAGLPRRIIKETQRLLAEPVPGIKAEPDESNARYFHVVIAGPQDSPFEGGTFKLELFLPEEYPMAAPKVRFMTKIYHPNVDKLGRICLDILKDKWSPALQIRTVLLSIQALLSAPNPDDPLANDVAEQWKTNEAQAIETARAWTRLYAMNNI
Type of data set: functional.

Data set [12] concerns the target T7, Ubiquitin-conjugating enzyme E2 N. Type of data set: functional. This is another data set of the same source.
The nature of data set [13]: cells. Type of data set: functional, cell-based.
In a further data set the target is Cytochrome P450 2C9 (Homo sapiens, UniProt P11712).
Data set [14] can be described thus: cells. Type of data set: functional, cell-based. The source holds these as a separate data set.

Calls of active or inactive are those of the source. Bounds are passed on as bounds.

Sequence of Glyceraldehyde-3-phosphate dehydrogenase (P04406 whole entry): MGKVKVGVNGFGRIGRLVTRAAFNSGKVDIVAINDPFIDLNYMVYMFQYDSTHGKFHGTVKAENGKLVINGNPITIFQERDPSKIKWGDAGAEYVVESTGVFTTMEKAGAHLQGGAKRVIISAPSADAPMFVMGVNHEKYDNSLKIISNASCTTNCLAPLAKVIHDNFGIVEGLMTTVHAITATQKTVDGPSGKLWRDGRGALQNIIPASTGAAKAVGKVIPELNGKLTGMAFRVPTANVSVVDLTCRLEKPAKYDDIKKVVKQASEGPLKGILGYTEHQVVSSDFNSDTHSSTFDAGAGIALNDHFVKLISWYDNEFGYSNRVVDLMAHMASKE
Sequence of Nonstructural protein 1 (Q194T2 whole entry): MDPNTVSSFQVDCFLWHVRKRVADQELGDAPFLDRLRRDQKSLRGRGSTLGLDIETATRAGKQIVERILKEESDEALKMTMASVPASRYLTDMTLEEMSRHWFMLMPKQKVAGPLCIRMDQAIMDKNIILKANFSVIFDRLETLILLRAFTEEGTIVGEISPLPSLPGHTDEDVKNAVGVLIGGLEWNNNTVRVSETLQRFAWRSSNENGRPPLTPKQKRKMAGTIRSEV
Sequence of Cytochrome P450 2D6 (P10635 whole entry): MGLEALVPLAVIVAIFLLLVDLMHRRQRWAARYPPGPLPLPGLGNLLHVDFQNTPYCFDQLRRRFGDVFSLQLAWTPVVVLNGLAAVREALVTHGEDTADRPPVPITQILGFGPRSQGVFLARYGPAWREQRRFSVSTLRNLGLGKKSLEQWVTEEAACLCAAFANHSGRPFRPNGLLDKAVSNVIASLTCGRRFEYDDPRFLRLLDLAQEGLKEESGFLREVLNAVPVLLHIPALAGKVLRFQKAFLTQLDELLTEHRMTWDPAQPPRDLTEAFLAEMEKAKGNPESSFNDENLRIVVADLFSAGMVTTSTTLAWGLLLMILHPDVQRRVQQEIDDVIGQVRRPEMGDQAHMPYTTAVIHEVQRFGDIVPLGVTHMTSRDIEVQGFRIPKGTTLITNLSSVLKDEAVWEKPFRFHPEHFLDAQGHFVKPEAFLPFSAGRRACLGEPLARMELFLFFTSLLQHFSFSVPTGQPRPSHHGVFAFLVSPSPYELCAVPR
Sequence of FAD-linked sulfhydryl oxidase ALR (P55789 whole entry): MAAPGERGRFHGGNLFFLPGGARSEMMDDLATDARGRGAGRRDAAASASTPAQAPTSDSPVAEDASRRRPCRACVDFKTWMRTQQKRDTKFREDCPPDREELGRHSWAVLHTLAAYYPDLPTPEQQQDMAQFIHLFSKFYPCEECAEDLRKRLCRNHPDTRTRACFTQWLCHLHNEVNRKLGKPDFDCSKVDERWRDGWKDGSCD
Sequence of Voltage-dependent T-type calcium channel subunit alpha-1H (O95180 whole entry): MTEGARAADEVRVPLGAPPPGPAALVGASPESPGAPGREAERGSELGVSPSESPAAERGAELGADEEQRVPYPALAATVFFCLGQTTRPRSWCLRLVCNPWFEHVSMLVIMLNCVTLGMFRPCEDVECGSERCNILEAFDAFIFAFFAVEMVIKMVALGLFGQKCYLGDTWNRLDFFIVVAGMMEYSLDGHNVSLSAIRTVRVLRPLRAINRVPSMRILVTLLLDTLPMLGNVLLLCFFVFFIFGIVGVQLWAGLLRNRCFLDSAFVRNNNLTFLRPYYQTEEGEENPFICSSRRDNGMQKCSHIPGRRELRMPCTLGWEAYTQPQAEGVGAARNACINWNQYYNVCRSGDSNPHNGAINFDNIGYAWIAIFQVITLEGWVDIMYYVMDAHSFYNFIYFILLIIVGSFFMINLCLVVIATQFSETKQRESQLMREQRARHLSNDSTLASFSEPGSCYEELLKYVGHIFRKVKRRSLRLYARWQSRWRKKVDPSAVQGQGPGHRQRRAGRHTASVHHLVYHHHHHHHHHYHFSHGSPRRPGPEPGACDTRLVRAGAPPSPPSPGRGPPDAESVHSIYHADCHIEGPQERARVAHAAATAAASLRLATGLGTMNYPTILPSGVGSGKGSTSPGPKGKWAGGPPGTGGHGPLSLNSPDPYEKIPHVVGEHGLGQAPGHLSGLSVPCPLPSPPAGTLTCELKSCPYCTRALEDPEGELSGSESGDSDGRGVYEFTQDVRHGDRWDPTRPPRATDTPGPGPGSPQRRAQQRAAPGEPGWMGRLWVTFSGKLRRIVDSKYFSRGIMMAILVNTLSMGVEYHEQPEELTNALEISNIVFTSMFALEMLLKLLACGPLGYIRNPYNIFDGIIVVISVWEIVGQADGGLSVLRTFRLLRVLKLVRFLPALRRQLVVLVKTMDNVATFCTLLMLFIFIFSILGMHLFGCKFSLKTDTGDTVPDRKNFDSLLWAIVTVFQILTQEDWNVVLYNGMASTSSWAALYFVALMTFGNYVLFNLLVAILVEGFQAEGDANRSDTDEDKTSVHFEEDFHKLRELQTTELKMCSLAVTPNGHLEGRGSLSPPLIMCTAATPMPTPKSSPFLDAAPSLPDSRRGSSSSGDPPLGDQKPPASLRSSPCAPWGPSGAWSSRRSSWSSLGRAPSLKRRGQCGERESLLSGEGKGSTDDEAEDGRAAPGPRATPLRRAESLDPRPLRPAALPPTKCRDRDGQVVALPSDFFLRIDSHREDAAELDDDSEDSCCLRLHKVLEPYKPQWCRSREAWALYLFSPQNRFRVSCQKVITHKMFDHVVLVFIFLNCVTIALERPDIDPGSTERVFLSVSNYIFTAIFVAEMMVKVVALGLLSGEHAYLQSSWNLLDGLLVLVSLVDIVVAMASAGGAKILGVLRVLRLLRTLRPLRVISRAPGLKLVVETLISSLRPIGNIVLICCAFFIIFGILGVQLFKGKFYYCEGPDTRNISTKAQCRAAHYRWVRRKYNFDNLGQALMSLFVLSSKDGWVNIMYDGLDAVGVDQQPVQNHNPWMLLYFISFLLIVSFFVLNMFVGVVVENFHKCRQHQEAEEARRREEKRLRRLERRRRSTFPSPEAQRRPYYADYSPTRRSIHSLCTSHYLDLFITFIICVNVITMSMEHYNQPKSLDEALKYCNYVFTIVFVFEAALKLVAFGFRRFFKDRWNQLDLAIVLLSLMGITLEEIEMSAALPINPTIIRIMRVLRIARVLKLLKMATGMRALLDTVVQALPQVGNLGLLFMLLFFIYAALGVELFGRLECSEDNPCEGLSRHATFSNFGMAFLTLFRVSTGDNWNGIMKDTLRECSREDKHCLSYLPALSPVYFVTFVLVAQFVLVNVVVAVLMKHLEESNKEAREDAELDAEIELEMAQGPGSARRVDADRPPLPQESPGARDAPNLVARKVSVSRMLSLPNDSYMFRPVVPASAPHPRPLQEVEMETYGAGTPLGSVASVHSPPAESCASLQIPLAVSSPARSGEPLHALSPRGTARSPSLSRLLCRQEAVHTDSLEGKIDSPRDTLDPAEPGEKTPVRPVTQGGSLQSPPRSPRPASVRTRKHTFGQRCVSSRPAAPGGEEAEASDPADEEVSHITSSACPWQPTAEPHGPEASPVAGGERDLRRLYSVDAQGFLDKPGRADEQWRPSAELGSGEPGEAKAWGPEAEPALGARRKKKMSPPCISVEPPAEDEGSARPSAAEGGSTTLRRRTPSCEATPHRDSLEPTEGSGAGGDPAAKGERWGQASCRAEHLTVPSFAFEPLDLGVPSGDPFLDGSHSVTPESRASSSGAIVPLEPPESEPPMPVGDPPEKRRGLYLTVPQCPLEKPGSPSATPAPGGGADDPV
Sequence of Cytochrome P450 2C9 (P11712 whole entry): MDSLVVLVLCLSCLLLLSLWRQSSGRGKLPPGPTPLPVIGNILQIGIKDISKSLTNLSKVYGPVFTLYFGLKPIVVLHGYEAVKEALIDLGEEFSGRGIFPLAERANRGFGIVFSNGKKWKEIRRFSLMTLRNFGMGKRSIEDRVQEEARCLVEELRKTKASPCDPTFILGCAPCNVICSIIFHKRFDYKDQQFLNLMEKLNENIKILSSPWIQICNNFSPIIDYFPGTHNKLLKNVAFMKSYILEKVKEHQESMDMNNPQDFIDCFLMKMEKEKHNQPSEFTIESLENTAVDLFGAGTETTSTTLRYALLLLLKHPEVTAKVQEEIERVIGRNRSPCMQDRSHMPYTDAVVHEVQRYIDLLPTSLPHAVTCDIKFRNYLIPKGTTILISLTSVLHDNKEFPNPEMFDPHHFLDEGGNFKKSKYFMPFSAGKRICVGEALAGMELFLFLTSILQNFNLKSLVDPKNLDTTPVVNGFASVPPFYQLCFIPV

A word on the IC50: it is the concentration that inhibits the measured activity by half. Regarding `COc1ccc(NC(=O)CSc2n[nH]c(-c3ccccn3)n2)cc1`, the IC50 on Nonstructural protein 1 was 4.25 µM (active).
As a reminder, the EC50 is the midpoint of the concentration-response curve. For orientation: CC50 means the concentration giving 50% cytotoxicity. For the compound `COc1cccc(C(=O)N(Cc2nc(-c3cccc(C)c3)no2)C(C)C)c1OC`, the 50% inhibitory concentration (IC50) in “cells [1]” is 4.69 µM (active). For the same compound, the EC50 in data set [2] was 12.7 µM (active). Further, the CC50 in data set [3] was 30.6 µM (active).
As for `CCc1nc2c(c(=O)c3ccccc3n2C)c(=O)n1-c1ccc(F)cc1`, on Hexokinase HKDC1, the half-maximal inhibitory concentration (IC50) was 7.9 µM (active).
`COC(=O)C1=C(c2ccc(F)cc2F)C[C@@H]2CC[C@H]1N2C(=O)NCCOc1ccccc1Cl`: the concentration for half-maximal inhibition (IC50) in “cells [1]” is 13.9 µM (active). Besides, the CC50 in data set [3] was 34.5 µM (active).
One may read the AC50 as the concentration giving half of the maximal activity seen. Regarding `Cc1ccc(-c2nc3ccccn3c2Nc2ccccc2)o1`, the AC50 in data set [4] was 0.235 µM (active). For the same compound, in data set [5], the CC50 was > 40 µM (active). Also, the IC50 in the data set “cells [6]” is 19.7 µM (active).
For the compound `Cc1ccc2c(C)c(C(=O)Nc3ccc(S(=O)(=O)Nc4onc(C)c4C)cc3)oc2c1`, the concentration for a half-maximal effect (EC50) on Streptokinase A was > 150 µM (not active); in the data set on Streptococcus, > 150 µM (not active); in [7], 23.8 µM (active). Besides, the IC50 in “cells [1]” is 24.7 µM (active). Moreover, in data set [3], the CC50 was 24.4 µM (active).
As for `O=S(=O)(Nc1cccnc1)c1cc(Cl)cc(Cl)c1O`, the half-inhibitory concentration (IC50) was > 100 µM (not active) in [8] and > 100 µM (inactive) in data set [9].
Regarding `COCCn1c(-c2ccccc2Cl)nc2c(c(=O)c3ccccc3n2C)c1=O`, the concentration for half-maximal inhibition (IC50) in the data set “cells [1]” is 14.6 µM (active).
For `Cc1ccc(NC(=O)CSCC(N)=O)cc1C`, the IC50 at Coagulation factor XII is > 50 µM (inactive).
In the case of `O=C(CSc1nnc(CCCN2C(=O)c3cccc4cccc(c34)C2=O)n1-c1ccccc1)N1CCCCC1`, on Hexokinase HKDC1, the concentration for half-maximal inhibition (IC50) is 11.4 µM (active).
`O=C(Cc1ccccc1)NC(NC(=S)Nc1cc(Cl)ccc1Cl)C(Cl)(Cl)Cl` (stereo not given): the IC50 was > 50 µM (not active) in data set [10] and > 50 µM (inactive) on Coagulation factor XII. Also, the AC50 at Cytochrome P450 2D6 is 3.16 µM (inconclusive).
For the compound `O=C(CN(Cc1cccs1)C(=O)CCC(=O)Nc1nccs1)NCc1ccccc1`, at Coagulation factor XII, the IC50 is > 50 µM (inactive).
As for `c1cncc(-c2cncnc2)c1`, the values for the IC50 in [8] and in data set [9] were > 100 µM (not active) and > 100 µM (inactive), respectively.
Consider `CC1CC(C)(C)n2c(O)c(/N=N/C(=N)S)c3cccc1c32` (stereo not given), for which the results for the IC50 (on Bcl-2-related protein A1; in [11]; in [12]) were > 20 µM (inactive), 4.95 µM (active) and 6.33 µM (active), respectively. Further, the EC50 is > 150 µM (not active) on Streptokinase A, > 150 µM (not active) in the data set with Streptococcus and 9.25 µM (active) in data set [7].
As to `O=C(O)c1ccc(/N=C/c2c(O)ccc3ccccc23)cc1`, the IC50 at Hexokinase HKDC1 is 38.1 µM (inactive).
As to `N#C/C(=N\Nc1ccccc1)C(N)=S`, the IC50 on Coagulation factor XII was > 50 µM (inactive).
For the compound `COc1ccc(C(=O)N/N=C/c2cccc3cccnc23)cc1`, the half-maximal effective concentration (EC50) in “cells [13]” is 15.5 µM (active); in “cells [14]”, > 350 µM (not active). Besides, the half-maximal activity concentration (AC50) entry on Cytochrome P450 2C9 was “inconclusive”. Moreover, the cytotoxic concentration (CC50) in [5] is 14.7 µM (active). In addition, the figures for the IC50 in the data set “cells [6]” and at Nonstructural protein 1 were 3.44 µM (active) and 5.8 µM (active), respectively.

The record behind these values is ChEMBL document CHEMBL1201862, “PubChem BioAssay data set” (2004).
